According to publication PMC10783051 (Microbiology Spectrum, 2023):
Entries after “also recorded” stand apart in the source; their conditions may differ.

How the values were obtained:
Streptomyces [1] = conditions: cited from earlier work
Source text: Therefore, we hypothesized that Sv may catabolize those exogenous CLPs and use them as nutritional sources. […] (Fig. 2E and F). Extraction of the me ...

[2] = confrontation zone between B. velezensis GA1 and S. venezuelae ATCC 10712 on REM solid medium (agar extract); conditions: Streptomyces venezuelae ATCC 10712 / Bacillus velezensis GA1, 26°C, up to 3 days
[3] = Sv cultures grown on gelified GA1 ΔbaeJ-mlnA-dfnA CFS; conditions: Streptomyces venezuelae, 28°C, up to 3 days
[4] = Sv cell-free supernatant (CFS); conditions: Streptomyces venezuelae ATCC 10712, 30°C, up to 24 h; time course up to 48 h
Streptomyces [5] = conditions: cited from earlier work
[6] = rhizosphere extracts (agar near tomato roots co-inoculated with Bv and Sv, Hoagland solid medium); conditions: Streptomyces venezuelae ATCC 10712 / Bacillus velezensis GA1-GFP on tomato (Solanum lycopersicum var. Moneymaker), 22°C, up to 7 days
[7] = tested on: S. venezuelae supernatant (secreted enzymes); test: In vitro degradation of CLPs by S. venezuelae cell-free supernatant; format: in vitro ADME, Streptomyces venezuelae ATCC 10712; conditions: shaking 180 rpm; for degradation of Pseudomonas CLPs by Sv CFS: Pseudomonas CFS (CAA medium) supplemented with 4% (vol/vol) Sv CFS, 24 h at 30°C, UPLC-MS and MS/MS, degraded to different degrees
Method: S. venezuelae cultures were performed on ISP2 medium at 28°C (yeast extract 4 g/L, malt extract 10 g/L, glucose 4 g/L, agar 20 g/L; pH 7.3). On 12 × 12 cm Petri square plates, three stripes (1 × 12 cm) of spores were inoculated with a cotton swab [40 µL of spores suspension (10^7 spores/mL) each], spaced by 3 cm each. The plates were left for 7 days of incubation. Next, the agar media was recovered and placed in Falcon tubes at −20°C for 24 h. Then, the agar media were defrosted at room temperature and centrifuged (8,000 rpm for 20 min). Finally, the supernatant leaked from the agar was collected, filtered sterilized (0.22-µm pore size filters) and stored at −20°C until further use. The heat-treated Sv supernatant was generated by incubating an aliquot of the cell-free supernatant of Sv for 10 min at 98°C. The supernatant was then filtered (0.22-µm pore size filters) and stored at −20°C until further use.
[…] Then the solutions were incubated for 24 h at 30°C with continuous shaking (180 rpm). Next, the solution were centrifuged (1 min at 10,000 rpm), filtered (0.22-µm pore size filters), and analyzed by UPLC-MS.
The degradation assays of Pseudomonas CLPs were performed using CFS generated as described above. They were supplemented by 4% (vol/vol) of S. venezuelae CFS prepared as described previously. Next, the solutions were incubated for 24 h at 30°C with continuous shaking (180 rpm). Then, the solution were centrifuged (1 min at 10,000 rpm), filtered (0.22-µm pore size filters), and analyzed by UPLC-MS.
For the CLP degradation kinetic experiments, surfactin, iturin, and fengycin solutions supplemented with S. venezuelae supernatant were prepared following the same protocol. Twenty microliters of solution was sampled at each time point and directly mixed with 80 µL of acetonitrile to stop enzymatic degradation. Finally, they were stored at −20°C until analysis by UPLC-MS.
All UPLC-MS analyses were performed using an Agilent 1290 Infinity II coupled with a diode array detector and a mass detector (Jet Stream ESI-Q-TOF 6530) in positive mode with the parameters set up as follows: capillary voltage of 3.5 kV, nebulizer pressure of 35 lb/in^2, drying gas of 8 L/min, drying gas temperature of 300°C, flow rate of sheath gas of 11 L/min, sheath gas temperature of 350°C, fragmentor voltage of 175 V, skimmer voltage of 65 V, and octopole radiofrequency of 750 V. Accurate mass spectra were recorded in the m/z range of 300–1,700. For untargeted MS/MS, we used the same MS1 parameters as described. We added MS2 untargeted acquisition mode with the parameters as follows: MS/MS range 50–1,700 m/z; MS/MS scan rate 3 spectra/s; isolation width MS/MS medium (approx. 4 AMU), Decision Engine Native; fixed collision energies of 25 and 40 V for surfactin, 50 V for iturin, and 60 V for fengycin experiments; precursor selection: three for the surfactin experiment, four for the iturin and fengycin experiments, threshold 1,500 (Abs), isotope model common, active exclusion after two spectra and release after 0.5 min, sorting the precursors by charge state then abundance (charge state preference 1). For targeted MS/MS, we used the same MS1 parameters MS/MS range of 50–1,700 m/z or 50–3,200 (when required for Pseudomonas CLPs with mass >1,700 Da), MS/MS scan rate 3 spectra/s, isolation width MS/MS narrow (approx. 1.3 amu), and fixed collision energies 20, 40, and 60V. In all experiments, a C18 Acquity UPLC ethylene bridged hybrid column (2.1 mm × 50 mm × 1.7 µm; Waters Corporation, Milford, MA, USA) was used at a flow rate of 0.6 mL/min and a temperature of 40°C. The injection volume was 20 µL, and the diode array detector scanned a wavelength spectrum between 190 and 600 nm. Unless otherwise mentioned, a gradient of acidified water (0.1% formic acid) (solvent A) and of acidified acetonitrile (0.1% formic acid) (solvent B) was used as mobile phase with a constant flow rate of 0.6 mL/min, starting at 10% B and rising to 100% B in 20 min. […]

[8] = tested on: Streptomyces venezuelae ATCC 10712; test: Confrontation assay B. velezensis GA1 / S. venezuelae on REM plate, UPLC-MS metabolite profiling of the agar; conditions: gelified REM, 3 days at 26°C
Method: Confrontation assays were performed on square Petri dishes (12 × 12 cm) with 40 mL of REM solid medium at 26°C (REM supplemented with 14 g/L of agar).
S. venezuelae ATCC 10712 was inoculated as stripes (1 × 12 cm) in the middle of the plate with 40 µL of spore suspension (10^7 spores/mL) and spread with a cotton swab. Next, B. velezensis GA1 cells were collected from fresh precultures as described and adjusted to OD600 nm 0.1. Then, 5 µL of B. velezensis GA1 suspension was spotted at 1 cm of the Streptomyces line. Control plates were done following the same procedure without the inoculation of either Bacillus or Streptomyces. Plates were then incubated for 3 days at 26°C in the dark. Pictures of the plates were then captured using a CoolPix camera (NIKKOR ×60 wide optical zoom extra-low dispersion vibration reduction 4.3–258.0 mm 1:33 to 6.5).
The extraction of the metabolites from the agar was performed as follows. For the confrontation experiment, we precisely sampled the area of agar (2 × 1 cm) near the colony of Bacillus or Streptomyces (the confrontation zone is 1 cm wide) with standardized plugs. For the in planta, we sampled the agar area (1 × 1 cm) near the tomato roots. In both cases, the agar samples were transferred to Eppendorf tubes and placed for 24 h at −20°C. Then, the agar was thawed at room temperature and centrifuged for 10 min at 13,000 rpm. The supernatants were then collected and filtered (0.22-µm pore size filters) before UPLC-MS analysis.
All UPLC-MS analyses were performed using an Agilent 1290 Infinity II coupled with a diode array detector and a mass detector (Jet Stream ESI-Q-TOF 6530) in positive mode with the parameters set up as follows: capillary voltage of 3.5 kV, nebulizer pressure of 35 lb/in^2, drying gas of 8 L/min, drying gas temperature of 300°C, flow rate of sheath gas of 11 L/min, sheath gas temperature of 350°C, fragmentor voltage of 175 V, skimmer voltage of 65 V, and octopole radiofrequency of 750 V. Accurate mass spectra were recorded in the m/z range of 300–1,700. For untargeted MS/MS, we used the same MS1 parameters as described. We added MS2 untargeted acquisition mode with the parameters as follows: MS/MS range 50–1,700 m/z; MS/MS scan rate 3 spectra/s; isolation width MS/MS medium (approx. 4 AMU), Decision Engine Native; fixed collision energies of 25 and 40 V for surfactin, 50 V for iturin, and 60 V for fengycin experiments; precursor selection: three for the surfactin experiment, four for the iturin and fengycin experiments, threshold 1,500 (Abs), isotope model common, active exclusion after two spectra and release after 0.5 min, sorting the precursors by charge state then abundance (charge state preference 1). For targeted MS/MS, we used the same MS1 parameters MS/MS range of 50–1,700 m/z or 50–3,200 (when required for Pseudomonas CLPs with mass >1,700 Da), MS/MS scan rate 3 spectra/s, isolation width MS/MS narrow (approx. 1.3 amu), and fixed collision energies 20, 40, and 60V. In all experiments, a C18 Acquity UPLC ethylene bridged hybrid column (2.1 mm × 50 mm × 1.7 µm; Waters Corporation, Milford, MA, USA) was used at a flow rate of 0.6 mL/min and a temperature of 40°C. The injection volume was 20 µL, and the diode array detector scanned a wavelength spectrum between 190 and 600 nm. Unless otherwise mentioned, a gradient of acidified water (0.1% formic acid) (solvent A) and of acidified acetonitrile (0.1% formic acid) (solvent B) was used as mobile phase with a constant flow rate of 0.6 mL/min, starting at 10% B and rising to 100% B in 20 min. Solvent B was kept at 100% for 4 min before going back to the initial ratio. MassHunter Workstation (version 10.0) and ChemStation software were used for data collection and analysis. For untargeted analysis of iturin and fengycin degradation products, we used the same solvent and flow rate, starting at 10% B to 20% in 2 min, then rising to 50% B at 14 min and 100% B at 25 min, followed by 100% B and 5 at 10% B at 6 min.

## C/C(=C/C=C/C=C/C(C)C(=O)O)NC(=O)CC(O)\C(C)=C/C=C\C=C(C)\C=C\C=C/C=C/CNC(=O)C(O)CC(C)C (centres unmarked) [bacillaene]
Streptomyces [1]
  toxicity toward Streptomyces: toxicity

## Fa Glu Leu Leu Val Asp Leu Leu
[2]
  cleaved bond: Fa-E
  fragment found: Linear surfactin
[3]
  fragment found: Linear surfactin; also recorded: ELLVDLL; also recorded: LLVDLL
[4]
  cleaved bond: Fa-E and E-L and L-L and L-V
  fragment found: Linear surfactin, first_seen and FaEL
Streptomyces [5]
  fragment found: linear surfactin
[6]
  fragment found: linear surfactins; also recorded: ELLVDLL

## VSLVVQLVDhbTIHseDabK (lariat or depsi) [sessilin, Pseudomonas cyclic lipopeptide, tested in Pseudomonas cell-free supernatant]
[7]
  degradation of Pseudomonas CLPs by Sv CFS: degraded

## difficidin
Streptomyces [1]
  toxicity toward Streptomyces: toxicity

## fengycin
[8]; UPLC-MS, MS/MS
  shorter CLP fragment detected in the confrontation zone but not in Bv monoculture: loss of the terminal isoleucine
[8]; agar extract of confrontation zone, UPLC-Q-TOF-MS peak areas, three biological replicates
  abundance of the CLP in the confrontation zone compared with monocultures: decrease in the abundance
[7]; pure CLPs (100 µM) incubated 24 h at 30°C with 4% (vol/vol) Sv CFS (grown on ISP2, 0.22-µm filtered), UPLC-MS/MS with feature-based molecular networking
  degradation of pure Bacillus CLPs by Sv CFS: degrades

## macrolactin
Streptomyces [1]
  toxicity toward Streptomyces: toxicity

## orfamide
[7]
  degradation of Pseudomonas CLPs by Sv CFS: degraded

## putisolvin
[7]
  degradation of Pseudomonas CLPs by Sv CFS: degraded

## xantholisin
[7]
  degradation of Pseudomonas CLPs by Sv CFS: degraded
